Source: ChEMBL document CHEMBL1147531, “Farnesyloxycoumarins, a new class of squalene-hopene cyclase inhibitors” (Bioorg Med Chem Lett, 2004)

Biological target: T1, Squalene--hopene cyclase (Alicyclobacillus acidocaldarius subsp. acidocaldarius (strain ATCC27009 / DSM 446 / 104-1A) (Bacillus acidocaldarius)) (UniProt P33247)
T1 sequence (whole entry): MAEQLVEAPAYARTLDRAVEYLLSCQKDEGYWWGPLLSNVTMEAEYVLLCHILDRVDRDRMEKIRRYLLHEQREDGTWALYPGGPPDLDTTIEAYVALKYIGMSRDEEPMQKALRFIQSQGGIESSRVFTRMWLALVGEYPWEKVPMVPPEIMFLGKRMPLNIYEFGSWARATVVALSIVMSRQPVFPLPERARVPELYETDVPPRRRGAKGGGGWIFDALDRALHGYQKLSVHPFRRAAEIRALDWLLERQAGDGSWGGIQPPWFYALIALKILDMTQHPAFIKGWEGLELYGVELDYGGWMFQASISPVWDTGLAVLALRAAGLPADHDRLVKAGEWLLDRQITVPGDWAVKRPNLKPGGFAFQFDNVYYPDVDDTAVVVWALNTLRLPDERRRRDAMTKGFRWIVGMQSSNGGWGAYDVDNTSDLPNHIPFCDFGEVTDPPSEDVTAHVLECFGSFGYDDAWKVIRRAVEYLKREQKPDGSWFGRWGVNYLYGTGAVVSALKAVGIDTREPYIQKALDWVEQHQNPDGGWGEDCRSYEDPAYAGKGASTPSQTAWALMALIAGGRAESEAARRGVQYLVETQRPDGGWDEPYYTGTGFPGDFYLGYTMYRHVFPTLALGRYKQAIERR
Experiment: Inhibitory activity against squalene hopene cyclase from Alicyclobacillus acidocaldarius expressed in Escherichia coli at a concentration of 100 uM; call rule not given here

Row | inhibition | SMILES
1 | 7% | CC(=O)Oc1cc2ccc(=O)oc2cc1OC/C=C(\C)CCC1OC1(C)CCC1OC1(C)C (centres undefined)
2 | 46% | CC(=O)Oc1cc2ccc(=O)oc2cc1OC/C=C(\C)CC/C=C(\C)CCC1OC1(C)C (centres undefined)
3 | 40% | C/C(=C\COc1cc(=O)oc2ccccc12)CC/C=C(\C)CCC1OC1(C)C (centres undefined)

Biological target: T1, Squalene--hopene cyclase (Alicyclobacillus acidocaldarius subsp. acidocaldarius (strain ATCC27009 / DSM 446 / 104-1A) (Bacillus acidocaldarius))
Experiment: IInhibitory activity against squalene hopene cyclase from Alicyclobacillus acidocaldarius expressed in Escherichia coli at a concentration of 100 uM

Row | inhibition | SMILES
4 | 38% | CC(=O)Oc1ccc2c(OC(C)=O)c(C/C=C(\C)CCC3OC3(C)CCC3OC3(C)C)c(=O)oc2c1 (centres undefined)

Biological target: T2, Squalene--hopene cyclase (Alicyclobacillus acidocaldarius subsp. acidocaldarius (strain ATCC27009 / DSM 446 / 104-1A) (Bacillus acidocaldarius), UniProt P33247)
T2 sequence (P33247 whole entry): T1 sequence (whole entry)
Experiment: Inhibitory activity against squalene hopene cyclase from Alicyclobacillus acidocaldarius expressed in Escherichia coli

Row | SMILES | IC50
5 | CC(C)=CCC/C(C)=C/CC/C(C)=C/COc1ccc2ccc(=O)oc2c1 [UMBELLIPRENIN] | 70 µM
6 | C/C(=C\COc1ccc2ccc(=O)oc2c1)CC/C=C(\C)CCC(O)C(C)(C)O (centres undefined) | 65 µM
7 | CC(C)=CCC/C(C)=C/CC/C(C)=C/Cc1c(O)c2ccccc2oc1=O | 90 µM
8 | C/C(=C\COc1ccc2ccc(=O)oc2c1)CC[C@H]1C2(C)CC[C@@H](O2)C1(C)C (single isomer, unassigned) [FARNESIFEROL C] | 7 µM
9 | C/C(=C\COc1ccc2ccc(=O)oc2c1)CCC1OC1(C)CCC1OC1(C)C (centres undefined) | 1.5 µM

Now from value to compound:

Row | IC50 | SMILES
10 | 100 µM | CC(=O)Oc1ccc2c(OC(C)=O)c(C/C=C(\C)CC/C=C(\C)CCC3OC3(C)C)c(=O)oc2c1 (centres undefined)
11 | 2.5 µM | C/C(=C\COc1ccc2ccc(=O)oc2c1)CC/C=C(\C)CCC1OC1(C)C (centres undefined)
12 | 67 µM | C/C(=C\COc1cc2oc(=O)ccc2cc1O)CC/C=C(\C)CCC1OC1(C)C (centres undefined)

Biological target: T2, Squalene--hopene cyclase
Experiment: Inhibitory activity against squalene hopene cyclase from Alicyclobacillus acidocaldarius expressed in Escherichia coli at a concentration of 100 uM; n.a. = not active

Row | IC50 | SMILES
13 | Not Active | CC1(C)[C@H]2CC[C@](C)(O)[C@@H](COc3ccc4ccc(=O)oc4c3)[C@]2(C)CC[C@@H]1O
14 | Not Active | CC(C)=CCC/C(C)=C/CC/C(C)=C/COc1cc(=O)oc2ccccc12
15 | Not Active | CC(=O)O[C@H]1CC[C@]2(C)[C@H](CC[C@](C)(O)[C@H]2COc2ccc3ccc(=O)oc3c2)C1(C)C
16 | Not Active | C=C1CC[C@@H]2C(C)(C)[C@H](O)CC[C@@]2(C)[C@@H]1COc1ccc2ccc(=O)oc2c1
17 | Not Active | CC1(C)C(=O)CC[C@]2(C)[C@@H]1CC[C@](C)(O)[C@H]2COc1ccc2ccc(=O)oc2c1
18 | Not Active | CC(C)=CCC/C(C)=C/CC/C(C)=C/Cc1c(O)oc2cc(O)ccc2c1=O
19 | Not Active | C=C1CC[C@@H]2C(C)(C)C(=O)CC[C@@]2(C)[C@@H]1COc1ccc2ccc(=O)oc2c1
